Measured values: patent publication US5776929A, “Benzodiazepine derivative” (Shionogi & Co., Ltd., priority 1993, dated 1998)
“Also recorded” adds a separate entry of the source.

Key:
gastrin receptor = molecular target: T1, gastrin receptor (Cavia porcellus, UniProt H0VZC5); test: Gastrin receptor antagonism, displacement of 125I-labeled gastrin, gastric (fundic) gland cells; type: binding, guinea pig (male Hartley); conditions: guinea pig gastric glands, 125I-gastrin 0.2 nM, 30 min, 25 °C; read-out: Receptor Gastrin (IC50)
T1 construct: stomach was extracted from each animal immediately, from which gastric glands were prepared; from tissue; host or cells: gastric (fundic) glands of male Hartley guinea pigs
T1 sequence (H0VZC5 1-426): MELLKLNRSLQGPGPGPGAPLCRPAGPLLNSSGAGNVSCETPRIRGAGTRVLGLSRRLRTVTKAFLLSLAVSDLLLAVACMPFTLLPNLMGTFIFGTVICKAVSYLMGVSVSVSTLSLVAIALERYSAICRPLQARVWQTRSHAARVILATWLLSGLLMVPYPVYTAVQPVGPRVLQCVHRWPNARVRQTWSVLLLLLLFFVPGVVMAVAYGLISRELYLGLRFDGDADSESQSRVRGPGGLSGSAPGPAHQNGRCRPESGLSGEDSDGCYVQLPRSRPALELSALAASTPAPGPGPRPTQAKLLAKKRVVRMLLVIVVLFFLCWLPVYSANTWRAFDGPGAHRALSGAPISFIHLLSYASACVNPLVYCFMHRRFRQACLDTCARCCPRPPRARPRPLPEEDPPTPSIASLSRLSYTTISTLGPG

CCK-B receptor = molecular target: T2, CCK-B receptor (Mus musculus, UniProt P56481); test: CCK-B receptor antagonism, displacement of [3H]CCK-8, cerebral cortex crude membrane; type: binding, mouse (male ddY); conditions: mouse cerebral cortex membrane, [3H]CCK-8 1 nM, 90 min, 25 °C; read-out: Receptor CCK-B (IC50)
T2 construct: crude membrane specimen from mouse cerebral cortex; from tissue; host or cells: cerebral cortex of male ddY mice, crude membranes
T2 sequence (P56481 1-453): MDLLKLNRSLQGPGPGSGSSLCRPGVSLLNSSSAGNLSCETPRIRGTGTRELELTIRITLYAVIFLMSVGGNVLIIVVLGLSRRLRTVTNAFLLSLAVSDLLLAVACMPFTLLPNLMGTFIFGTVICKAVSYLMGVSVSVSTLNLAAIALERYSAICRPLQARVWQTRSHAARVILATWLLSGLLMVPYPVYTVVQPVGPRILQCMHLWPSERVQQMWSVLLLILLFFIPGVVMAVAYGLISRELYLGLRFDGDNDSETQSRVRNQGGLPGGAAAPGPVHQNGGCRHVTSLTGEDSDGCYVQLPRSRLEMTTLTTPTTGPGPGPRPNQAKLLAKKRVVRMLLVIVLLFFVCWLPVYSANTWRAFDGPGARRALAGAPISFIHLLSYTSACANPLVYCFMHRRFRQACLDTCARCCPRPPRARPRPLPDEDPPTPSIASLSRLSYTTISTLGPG

CCK-A receptor = molecular target: T3, CCK-A receptor (Mus musculus, UniProt O08786); test: CCK-A receptor antagonism, displacement of [3H]CCK-8, pancreas crude membrane; type: binding, mouse (male ddY); conditions: mouse pancreas membrane, [3H]CCK-8 1 nM, 90 min, 25 °C; read-out: Receptor CCK-A (IC50)
T3 construct: crude membrane specimen from mouse pancreas; from tissue; host or cells: pancreas of male ddY mice, crude membranes
T3 sequence (O08786 1-436): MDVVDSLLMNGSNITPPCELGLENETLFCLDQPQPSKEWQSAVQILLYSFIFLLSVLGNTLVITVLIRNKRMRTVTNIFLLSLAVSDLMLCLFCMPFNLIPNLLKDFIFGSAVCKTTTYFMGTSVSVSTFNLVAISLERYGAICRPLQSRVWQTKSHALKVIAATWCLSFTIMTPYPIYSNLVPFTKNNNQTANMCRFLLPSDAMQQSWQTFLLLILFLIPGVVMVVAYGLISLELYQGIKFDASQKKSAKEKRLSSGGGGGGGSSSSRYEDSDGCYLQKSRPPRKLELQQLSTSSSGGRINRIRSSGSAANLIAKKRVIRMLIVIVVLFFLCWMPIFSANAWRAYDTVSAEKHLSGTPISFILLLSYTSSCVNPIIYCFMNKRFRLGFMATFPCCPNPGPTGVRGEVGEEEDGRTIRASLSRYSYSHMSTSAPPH

gastric acid secretion [1] = test: Inhibitory effect on gastric acid secretion by Schild method (pentagastrin-stimulated); type: in vivo, rat (male Sprague Dawley); conditions: intraduodenal, rat, read-out: Inhibitory Effect on acid secretion (Schild method), percent inhibition
Text: Evaluation of Inhibitory Effect on Gastric Acid Secretion by Schild Method
Twenty four hour starved (ad libitum for water) male Sprague Dawley rats (8-week-old) were anesthetized with urethane (1.5 g/kg S.C.) and kept breathing with esophagus cannulas. After laparotomy, esophagus cannulas were inserted orally up to proventriculus and ligated around gastric cardiac. Perfusion cannulas were inserted from duodenum into stomach and ligated around pylorus. Another cannulas were placed into duodenum and ligated for administration of drug. After sutra of abdomen, stomach was perfused via the esophagus cannulas with physiological saline (37° C.) while collecting perfusate for a 15 min interval. The perfusate was subjected to titration with 0.001 N NaOH solution to determine the acidity. When the basal acid secretion became stable, pentagastrin ([…]) was administered in a sustained manner via common carotid vein for about 90 min until the acid secretion reached approximately the highest level, when a test compound (0.5% M.C. suspension) was administered into duodenum through cannulas. The perfusate was collected for a 15 min interval to monitor the acid secretion for 90 min. The percent inhibition was calculated as follows:
Percent inhibition (%)=100×(A-B)/(C-B)
A: the minimum value of total acidity observed after the administration of a test compound;
B: the total acidity obtained immediately before the administration of pentagastrin; and
C: the total acidity obtained immediately before the administration of a test compound.

[2] = tested on: gastric damage due to stress induced by restricted water-immersion; test: Gastric damage due to stress induced by restricted water-immersion (single administration); type: in vivo, rat (male Sprague Dawley); conditions: for lesion index (% to control): 10 rats
Protocol: (§1) Male Sprague Dawley rats weighing from 240 to 280 g were used as experimental animals.
(§2) As H2 B, famotidine, and as gastrin receptor antagonist, L-365,260 described in Example 281 of Japanese Patent Publication (KOKAI) 63-238069 (EP 167,919; EP 284,256; U.S. Pat. No. 4,820,834; U.S. Pat. No. 5,004,741)), were used. […] For administration, a suspension of 10 mg famotidine or L-365,260 in 1 ml vehicle (0.5% methyl cellulose solution) was prepared. The combined formulation is a mixture of an equal amount of each suspension.
(§3) A previously determined dose of each test compound (1.0 ml or 3.0 ml/kg) was charged in a syringe and administered orally to a rat directly into gaster using a stainless probe needle (.phi.1.2×L 80 mm) equipped to the syringe.
(1) Gastric damage due to stress induced by restricted water-immersion (single administration test)
Twenty four hour starved (ad libitum for water) male Sprague Dawley rats (270-290 g) were orally administered with a test compound and, 30 min later, were loaded with stress in the following manner. Rats were placed in a stress cage (Natsume Seisakusyo) and immersed in water tank at 23° C. upto the level of pectoral processus xiphoideus [Takagi et al, Chem. Pharm. Bull (Tokyo) 12, 465-472 (1964)]. Seven hours later, animals were withdrawn from the water tank and killed with ether. The gaster was extracted and 1% formalin solution (13 ml) was injected in it. […] The gaster was observed under anatomic microscope (x10) and longer diameter (mm) of each damages (bleeding erosion) appearing around fundic glands was measured.

gastric acid secretion [3] = test: Basic gastric acid secretion after interruption following continuous administration (pylorus ligation); type: in vivo, rat (male Sprague Dawley); conditions: for basic gastric acid secretion (in words): P<0.05
Protocol: as §1, §2, §3
(§4) B. Continuous administration test
(§5) (A) A group consists of animals that received vehicle (0.5% methyl cellulose solution, 1 ml/kg).
(§6) (B) A group consists of animals that received famotidine (a suspension of 10 mg famotidine in 1 ml 0.5% methyl cellulose) continuously at a dose of 10 or 30 mg/kg/day.
(§7) (C) A group consists of animals that received L-365,260 continuously at a dose of 10 mg/kg/day.
(§8) (D) A group consists of animals that received a combined formulation of famotidine and L-365,260 at a dose of 10 mg/kg/day for each compound.
(2) Basic gastric acid secretion after interruption following the continuous administration of famotidine
To a rat bred normally was administered continuously famotidine at a dose of 10 or 30 mg/kg/day for a week. After the final administration, the basis gastric acid secretion (total acid excretion) was determined according to the pylorus ligation method (4-hour-method) [Shay, H. et al., Gastroenterology, 5: 43-61 (1945)]. The determination was carried out following the final administration, […], […]
Thus, rats were subjected to laparotomy under ether anesthetization and pylorus was ligated. Four hours later, gaster was extracted under ether anaesthetization and the accumulated gastric juice was collected. After centrifugation (3000 rpm, 10 min), pH and acidity of gastric juice was determined. The acidity was measured upto pH 7.0 with 0.1N NaOH. The total acid secretion (μEq/4 hr) was calculated by multiplying acidity by the volume of juice for each animal.

[4] = tested on: aspirin-induced gastric mucosa damage; test: Aspirin-induced gastric mucosa damage following continuous administration; type: in vivo, rat (male Sprague Dawley)
Protocol: as §1, §2, §3, §4, §5, §6, §7, §8
(3) Aspirin-induced gastric mucosa damage following a continuous administration of famotidine
After two-day-interruption following a continuous administration of famotidine, aspirin (200 mg/kg) was administered to rats orally. Seven hours later, gaster was extracted under ether anesthetization and subjected to formalin treatment with 1% formalin solution. The length (mm) of gastric mucosa damage appearing around fundic glands was then measured. Lesion index was calculated by adding all the measurements. Rats had been starved for 24 hr before aspirin administration (ad libitum for water).

[5] = immediately after 7 days, 10 mg/kg/day
[6] = immediately after 7 days, 30 mg/kg/day

O=C(Nc1cccc(-c2nnn[nH]2)c1)NC1C(=O)N(CC2CC2)c2ccccc2N(CC2CC2)C1=O [Compound 19-iv, 1,5-Bis-(cyclopropylmethyl)-3-(N'-(m-tetrazolylphenyl)ureido)-1H-1,5-benzodiazepine-2,4(3H,5H)-dione]
IC50 (gastrin receptor): 6 nM
IC50 (CCK-B receptor): 26 nM
IC50 (CCK-A receptor): 2600 nM
inhibition in vivo at 0.5 mg/kg (gastric acid secretion [1]; 0.5 mg/kg): 58%

O=C(Nc1cccc(-c2nnn[nH]2)c1)NC1C(=O)N(CC(=O)c2cccs2)c2ccccc2N(CC(=O)c2cccs2)C1=O [Compound 20-iv, 1,5-Bis-(thienylcarbonylmethyl)-3-(N'-(m-tetrazolylphenyl)ureido)-1H-1,5-benzodiazepine-2,4(3H,5H)-dione]
IC50 (gastrin receptor): 2 nM
IC50 (CCK-B receptor): 3 nM
IC50 (CCK-A receptor): 380 nM
inhibition in vivo at 0.3 mg/kg (gastric acid secretion [1]; 0.3 mg/kg): 65%

NC(N)=Nc1nc(CSCCC(N)=NS(N)(=O)=O)cs1 [Famotidine, famotidine]
lesion index (% to control) ([2]; 1 mg/kg p.o.): 33.4 ± 5.5 % to control
inhibition of appearance of stress gastric damage (in words) ([2]; 3 mg/kg): inhibited the appearance significantly
lesion index (% to control) ([2]; 3 mg/kg p.o.): 33.4 ± 5.5 % to control
basic gastric acid secretion (in words) (gastric acid secretion [3]; 10 mg/kg/day, after a 48-hour interruption): increased significantly
basic gastric acid secretion (in words) (gastric acid secretion [3]; 10 mg/kg/day, immediately after interrupting): inhibited significantly
basic gastric acid secretion (in words) (gastric acid secretion [3]; 30 mg/kg/day, after a 4-day interruption): increased significantly
basic gastric acid secretion (in words) (gastric acid secretion [3]; 30 mg/kg/day, immediately after interrupting): inhibited significantly
increase in the basic acid secretion, acid rebound (in words) (gastric acid secretion [3]; 2nd day after interruption following continuous administration): An increase in the basic acid secretion (acid rebound) was observed
inhibition (%) of total acid secretion (gastric acid secretion [3]; 24 hr after 7-day treatment, 10 mg/kg/day): -38.3%
total acid secretion (gastric acid secretion [3]; 24 hr after 7-day treatment, 10 mg/kg/day (Table 4)): 821.0 ± 214.2 μEq/4 hr
inhibition (%) of total acid secretion (gastric acid secretion [3]; 48 hr after 7-day treatment, 10 mg/kg/day): -105.7%
total acid secretion (gastric acid secretion [3]; 48 hr after 7-day treatment, 10 mg/kg/day (Table 4)): 948.9 ± 187.5 μEq/4 hr
total acid secretion (gastric acid secretion [3]; day 2 after 7-day treatment, 10 mg/kg/day (Table 6)): 788.4 ± 217.7 μEq/4 hr
total acid secretion (gastric acid secretion [3]; day 3 after 7-day treatment, 10 mg/kg/day (Table 6)): 682.4 ± 132.6 μEq/4 hr
inhibition (%) of total acid secretion (gastric acid secretion [3]; day 3 after 7-day treatment, 30 mg/kg/day): -45.3%
inhibition (%) of total acid secretion (gastric acid secretion [3]; day 4 after 7-day treatment, 30 mg/kg/day): -44.2%
inhibition (%) of total acid secretion (gastric acid secretion [3]; [5]): 61.6%
total acid secretion (gastric acid secretion [3]; [5]): 151.8 ± 29.8 μEg/49 hr
inhibition (%) of total acid secretion (gastric acid secretion [3]; [6]): 59.9%
total acid secretion (gastric acid secretion [3]; [6]): 158.4 ± 54.9 μEg/49 hr
lesion index (mm^2) ([4]; 10 mg/kg p.o., 7 days, aspirin 200 mg/kg after two-day interruption): 67.0 ± 14.2 mm^2
aspirin-induced gastric mucosa damage (in words) ([4]; continuous administration, two-day interruption): the condition deteriorated significantly; also recorded: the ulcer index got worse significantly on the 2nd day after interruption
